As usually defined, the melting point is the temperature of the solid-liquid transition. `CCOC(=O)c1cnc(-c2ccccc2)nc1OCc1ccc(OCc2nc(-c3ccco3)oc2C)c(OC)c1` registered a melting point of 142 to 143 °C. To `c1ccc(CSc2nc(SCc3ccccc3)n(-c3ncccn3)n2)cc1` belongs 86 to 88 °C. The molecule `CC(=O)OC1CSC(Oc2cnc(-c3ccccc3)c(F)c2)C(OC(C)=O)C1OC(C)=O` (centres undefined) registered a melting point of 160 to 162 °C.

The molecule `C=Cc1ccccc1C1C(C(=O)OC)=C(C)NC(C)=C1C(=O)OC` came in with a melting point of 140 to 148 °C. `Cc1c(C(=O)C(C)Br)ccn1S(=O)(=O)c1ccccc1` (centres undefined) yielded a melting point of 99 to 103 °C. To `COc1ccc(C(=O)c2ccc3cc(OC)ccc3c2)c(ON=C(C)C)c1` belongs 117 to 118 °C; to `CC(=O)Nc1cc(CN2CCCCC2)c(O)c2c1CCCC2`, 166 to 167 °C; to `CCc1nc(C)c(C(C)(O)c2ccsc2)o1` (centres undefined), 77.5 to 79 °C. To `O=C(C=Cc1cccnc1)NCCCCC1CCN(C(c2ccccc2)C2CCCCC2)CC1` (centres undefined) belongs 143 to 145 °C; to `Cc1cccnc1NC(=O)CN1C[C@@H](C)N(c2ncnc3sccc23)[C@@H](C)C1`, 157 to 159 °C; to `COc1ccc(-c2sc3c(c2OC(C)=O)CCCC3)cc1`, 81 °C. `O=c1oc2ccccc2nc1-c1cc(O)c(O)c([N+](=O)[O-])c1` had a melting point of 120 °C.

As to `Nc1cc(-c2nc(-c3ccco3)no2)ccc1Cl`, the melting point lay within 203 to 204 °C. To `CCC(=N)NC(=O)OC` belongs 87 to 93 °C; to `C=C1CCC2C3CCC4CC(OCOC)CCC4(C)C3CCC12C` (centres undefined), 73 to 75 °C. To `NSc1nc(-c2ccccc2Cl)ns1` belongs 143 to 145 °C. To `O=C(O)CCCCc1ccc2cncn2c1` belongs 168 to 171 °C; to `Cn1cc(Cc2cc3cccc(-c4cccc(C(=O)NCCO)c4)c3s2)cc(Cl)c1=O`, 210 to 211 °C. `CCOC(=O)C1=C(CC)NC(CC)=C(C(=O)OCC)C1c1ccccc1/C=C/C(=O)OC(C)(C)C` gave a melting point of 154 to 155 °C.

`FC(F)(F)c1cc(-c2ccc(Cl)c(Cl)c2)nc2c(-c3cccnc3)cnn12` showed a melting point of 224 °C. To `O=C(O)c1ccsc1Cl` belongs 166 to 167 °C; to `CC1(C)CCSc2ccc(-c3cc(-c4ccc(C(=O)O)cc4)ccc3-c3ccccc3)cc21`, 51 °C; to `CN1Cc2c(-c3nc(CN4C(=O)c5ccccc5C4=O)no3)ncn2-c2ccccc2C1=O`, 239 to 240 °C. To `COc1ccc(C(=O)O)c(-c2ccc(C(F)(F)F)cc2)c1` belongs 232 to 234 °C. To `N#Cc1cc(N)ccc1N1CCN(CCO)CC1` belongs 137 to 138 °C. As to `c1ccc(CN2CC3(COc4cc5c(cc43)CCO5)c3c(-c4cncnc4)cccc32)nc1` (centres undefined), the melting point was more than 200 °C. For `O=C(Nc1ccccc1)c1cscc1Cl`, the melting point was 119 to 121 °C.

As for `CCC(CC)n1nnc2c(Nc3c(Br)cc(OC)cc3OC)nc(C)cc21`, the melting point was 166 to 167 °C. As to `COc1cc(Br)ccc1C12CC3CC(CC(C3)C1)C2`, the melting point is 159 to 160 °C. The molecule `CN1CCN(c2nc(NCc3ccco3)nc(Nc3ccc(O)cc3)n2)CC1` had a melting point of 116 to 118 °C. To `CC(=O)Nc1ccc(S(=O)(=O)Cc2cccc(OC(C)=O)c2)c2cccnc12` belongs 179 to 182 °C; to `Cc1ccc(C(=O)NC(NC(=S)Nc2cccc(C)c2)C(F)(F)F)cc1` (centres undefined), 197 to 198 °C. To `O=C1NC(=O)c2ccc(I)cc2/C1=C/NCc1ccc(-n2cccc2)c(O)c1` belongs 230 to 231 °C; to `OCC(O)(c1ccccc1)C(Cl)c1ccccc1` (centres undefined), 108 to 109 °C. As for `Cc1cccc(COc2cccc(OCc3ccc4ccccc4n3)c2)c1OCC(=O)O`, the melting point lay in the range of 154 to 157 °C.

Molecule `COCc1nnc(NCCCN2CC3CCC(CC3)C2)c2cc3ccccn3c12` had a melting point of 229 to 232 °C. In turn, `CC(C)(C)c1cc(CCc2ccccc2NC(=O)NCC(C)(C)c2cccc(F)c2)cc(C(C)(C)C)c1O` came in with a melting point of 165 to 166 °C. To `CC(=O)N(C(=O)OC(C)(C)C)c1ccc(-c2nc3n(Cc4c(F)cccc4F)c(C)c(Cc4ccccc4)c(=O)n3c2C)cc1` belongs 176 to 177 °C. Consider `C#CCN(C)C(=O)NC`, for which the melting point was in the range of 68 to 69 °C.

Take `Cc1cc(-c2cc(C(F)F)n3ncc(C(=O)O)c3n2)ccc1Cl`: the melting point was 238 °C. To `CCCCc1oc2ccccc2c1-c1ccc(-c2ccc(OCC(=O)O)cc2)cc1` belongs 126 to 128 °C. To `CCCCn1c(=O)[nH]c(=O)c2c1ncn2CC(C)=O` belongs 218 °C.

Regarding `CC(C)n1c(/C=C/COc2ccc(C(=O)C(=O)O)cc2)c(-c2ccc(F)cc2)c2ccccc21`, the melting point was in the range of 151 to 152 °C.

As to `O=C1NC(=O)c2c1c(I)cc1[nH]c3ccc(O)cc3c21`, the melting point is more than 350 °C. To `CCOC(=O)Cc1ccc(-c2nc(COc3ccc(COc4nn(-c5ccccc5)cc4/C=C\c4csc(C(C)C)n4)cc3OC)c(C)o2)cc1` belongs 89 to 90 °C; to `CNc1nc(Cl)cc(NS(=O)(=O)c2ccccc2)n1`, 186 to 187 °C. In turn, `Cc1ccc2c(c1)[nH]c(=O)n2C1CCN(C2CCN(C(=O)OC(C)(C)C)CC2)CC1` registered a melting point of 210 to 211 °C. To `CCNC(C)CN1CCc2c(c(=O)oc3c(OC)c(OC)ccc23)C1` (centres undefined) belongs 125 to 127 °C. To `O=C(O)c1ccc(C#Cc2ccc(OCCCO)c(C34CC5CC(CC(C5)C3)C4)c2)cc1` belongs 290 to 292 °C; to `CCOC(=O)c1ncn(-c2nccs2)c1N`, 120 to 123 °C. To `CC(CC(=O)c1ccc(Br)cc1)C(=O)N1CCCC1C(=O)O` (centres undefined) belongs 136 to 138 °C; to `Fc1cccc(F)c1-c1ncc(Oc2cccc(Cl)c2)nn1`, 132 to 137 °C.

`FC(F)C(F)(F)Oc1cccc(Nc2nccc(-c3ccnc(Cl)c3)n2)c1` yielded a melting point of 150 to 153 °C.

As to `CC(C)(C)OC(=O)CC[C@H](NC(=O)c1ccc(N(CCCl)CCCl)cc1F)C(=O)OC(C)(C)C`, the melting point was in the range of 90 to 92 °C. `CCOc1nc(SC)nc(N2CCS(=O)CC2)c1C=O` showed a melting point of 163 °C. Regarding `CCc1cc(CC)nc(Sc2ccnc3cc(Cl)ccc23)n1`, the melting point was in the range of 64.8 to 66 °C. To `CCCCCCCCCCCCCCCC(=O)NS(=O)(=O)CCCC(=O)O` belongs 156 to 157 °C; to `Cc1cc(Cl)ccc1OC(Cn1cncn1)C(=O)C(C)(C)C` (centres undefined), 63 to 65 °C; to `NC(=O)N(O)Cc1ccc(-c2ccccn2)s1`, 168 °C. `C[C@]1(O)c2ccccc2CC[C@H]1O` (relative stereo): the melting point is 75 °C. Regarding `Cc1nc(N)nc(N)c1-c1cccc2ccccc12`, the melting point lay in the range of 224 to 225 °C.

In turn, `Cc1cccc(-c2[nH]c(C(C)C)nc2-c2ccc(F)c(-c3c[nH]nn3)c2)n1` showed a melting point of 233 to 235 °C.

Consider `CC(=O)N1CC(=O)Nc2ccccc21`, for which the melting point fell in the range of 164 to 165 °C.

The molecule `COc1ccc(C2Sc3ccc(OC)cc3N(CCN(C)C)C(=O)C2O)cc1` (centres undefined) displayed a melting point of 127 to 129 °C.
